Data on two compounds can be found in EPA's ToxValDB 9.5 (doi:10.2903/j.efsa.2018.5405).

SMILES strings stand for the structures. Values after ≈ are worked out from the molar mass of the structure shown.

The LC50 is the concentration that kills 50% of the test population. As usually defined, the NOAEL is the highest tested level that showed no adverse finding.

One data set has as its system Oncorhynchus mykiss. To be noted: for LC50: acute, duration: 96 hours, mortality.
The next data set deals with Tagia sp. The following applies: chronic/long-term; reproduction.
The test system of the next data set is Anas platyrhynchos. The following applies: reproductive.
A further data set concerns Apis mellifera. The following applies: acute, mortality.
The test system of a further data set is Bibionidae. The following applies: chronic/long-term; duration: 28 days; development.
Another data set concerns Colinus virginianus. The following applies: acute; oral; mortality.
In a further data set the test system is Hypoaspis aculeifer. The following applies: chronic/long-term; reproduction.
Another data set relates to Neomysis kadiakensis. To be noted: chronic/long-term; duration: 28 days; development.
The test system of the next data set is Typhlodromus pyri. Nature of the data set: LR50; higher = less toxic. The following applies: acute; mortality.

`O=C(O)c1ccc(F)c(Oc2ccccc2)c1` [4-Fluoro-3-phenoxybenzoic acid]: in the data set with Oncorhynchus mykiss, the LC50 is 4.06 µg/mL (≈ 17.5 µM). In addition, the NOEC in the data set on Tagia sp. was determined as 2.6 mg/kg.

`CC1(C)C(C=C(Cl)Cl)[C@@H]1C(=O)O[C@@H](C#N)c1ccc(F)c(Oc2ccccc2)c1` (stereo partly drawn) [beta-Cyfluthrin]: the NOAEL was determined as 2.6 mg/kg-day in the data set with Anas platyrhynchos; 1.39 mg/kg-day in the data set on Rattus norvegicus (chronic); 0.02 mg/kg-day in the data set with Rattus norvegicus (subchronic, duration: 13 weeks, inhalation, behavior). Besides, the LD50 was 0.012 µg/piece in the data set on Apis mellifera (dermal); 0.05 µg/piece in the data set with Apis mellifera (oral, unspecified); over 58.6 mg/kg-day in the data set with Colinus virginianus; over 8.79 mg/kg-day in the data set on Rattus norvegicus (acute, oral, mortality). For the same compound, the NOEC in the data set on Bibionidae was determined as 0.0057 µg/L; in the data set on Hypoaspis aculeifer, 0.485 mg/kg; with Neomysis kadiakensis, 0.00041 µg/L; in the data set on Oncorhynchus mykiss (chronic/long-term, duration: 58 days, growth), 0.0042 µg/L. This compound also gave a median lethal concentration (LC50) in the data set with Oncorhynchus mykiss of 6.8e-05 µg/mL (≈ 0.000157 µM). This compound also returned an LR50 in the data set on Typhlodromus pyri of 0.0025 g/ha.
